Assay results: paper PMC5851869 (Bioorganic & medicinal chemistry letters, 2018)

What follows are compounds tested on P. aeruginosa (assay: not given). Details: statement covers both MIC50 and biofilm formation assays.
Format: cell-based, Pseudomonas aeruginosa

Structure (SMILES)	anti-bacterial effect (in words)
O=C(O)CCN1C(=O)/C(=C\c2ccc(-c3ccccc3)cc2)SC1=S [compound 18]	poor anti-bacterial effects
O=C(O)CCN1C(=O)/C(=C/c2cccc(Nc3ccccc3)c2)SC1=S [compound 21]	poor anti-bacterial effects
O=C(O)CCN1C(=O)/C(=C\c2ccc(-c3cccc(O)c3)o2)SC1=S [compound 27]	poor anti-bacterial effects
NCCN1C(=O)/C(=C/c2ccc(-c3ccccc3)cc2)SC1=S [compound 30]	did not have significant antibacterial activity
CN(C)CCN1C(=O)/C(=C\c2ccc(-c3ccccc3)cc2)SC1=S [compound 31]	did not have significant antibacterial activity

Each compound was assayed against pa-HemO (Pseudomonas aeruginosa, UniProt O69002) (assay: fluorescence quenching assay). Details: not given.
Format: binding

Structure (SMILES)	Kd [nM]
O=C(O)CCN1C(=O)/C(=C/c2cccc(Nc3ccccc3)c2)SC1=S [compound 21]	~1000
O=C(O)CCN1C(=O)/C(=C\c2ccc(-c3cccc(O)c3)o2)SC1=S [compound 27]	~1000

Same assay, conditions: ratio of KD values relative to inhibitor 2

Structure (SMILES)	fold improvement in potency/affinity compared to compound 2
O=C1/C(=C/c2ccccn2)SC(=S)N1CCc1nnn[nH]1 [compound 3]	~2 fold
COc1cccc(/C=C2\SC(=S)N(CCC(=O)O)C2=O)c1 [compound 8]	~ 2 fold
COc1ccc(/C=C2\SC(=S)N(CCC(=O)O)C2=O)cc1 [compound 9]	~ 2 fold
O=C(O)CCN1C(=O)/C(=C/c2ccc(Cl)cc2)SC1=S [compound 11]	> 3 fold
CC(C)c1ccc(/C=C2\SC(=S)N(CCC(=O)O)C2=O)cc1 [compound 13]	5 fold
